Assay results: patent publication US20130053430A1, “MODULATION OF CETP EXPRESSION” (Isis Pharmaceuticals, Inc., priority 2010, published 2013)
Strand notation (5' to 3'): a small letter for the sugar, then the base; units joined by * are phosphorothioate-linked, units joined directly phosphodiester-linked; [ ] holds rarer units or linkages, { } end groups; capitals alone tell only the bases. e = 2'-O-(2-methoxyethyl) (MOE); [5mC] = 5-methylcytosine; d = 2'-deoxy (DNA)

Test system: human CETP mRNA
Assay: Antisense inhibition of human CETP mRNA in primary hepatocytes from huCETP transgenic mice (Example 4)
Type: cell-based, mouse
Conditions: 100 nM, cytofectin, ~24 hours
Experimental: Transgenic mice expressing human CETP, controlled by its natural flanking region, increase expression of this gene in response to hypercholesterolemia (Jiang, X. C. et al., J. Clin. Invest. 1992. 90: 1290-1295). These mice were utilized for the following studies. Antisense oligonucleotides targeted to a CETP nucleic acid and described in Example 1 were tested for their effect on CETP mRNA transcript in vitro. Cultured primary hepatocytes from huCETP transgenic mice, at a density of 17,500 cells per well in a 96-well plate, were transfected using cytofectin reagent with 100 nM or 200 nM antisense oligonucleotide. After approximately 24 hours, RNA was isolated from the cells and CETP mRNA levels were measured by quantitative real-time PCR. CETP mRNA transcript levels were adjusted according to total RNA content, as measured by the house-keeping gene, GAPDH mRNA levels. Results are presented in Table 6 as percent inhibition of CETP, relative to untreated control cells.

| Substance | Percent inhibition of human CETP mRNA |
| --- | --- |
| ISIS 349506: 5-10-5 MOE gapmer CGCCTTTGCTGTTCATGAGG (e[5mC]*eG*e[5mC]*e[5mC]*eT*dT*dT*dG*d[5mC]*dT*dG*dT*dT*d[5mC]*dA*eT*eG*eA*eG*eG) | 95% |
| ISIS 349469: 5-10-5 MOE gapmer TCTCGAAGTCAATGGACTGA (eT*e[5mC]*eT*e[5mC]*eG*dA*dA*dG*dT*d[5mC]*dA*dA*dT*dG*dG*eA*e[5mC]*eT*eG*eA) | 40% |
| ISIS 349474: 5-10-5 MOE gapmer CGCTCCCCTTGGAGATGCAG (e[5mC]*eG*e[5mC]*eT*e[5mC]*d[5mC]*d[5mC]*d[5mC]*dT*dT*dG*dG*dA*dG*dA*eT*eG*e[5mC]*eA*eG) | 64% |
| ISIS 349497: 5-10-5 MOE gapmer CCTCTTCAAATGTGTAAGCT (e[5mC]*e[5mC]*eT*e[5mC]*eT*dT*d[5mC]*dA*dA*dA*dT*dG*dT*dG*dT*eA*eA*eG*e[5mC]*eT) | 71% |
| ISIS 349473: 5-10-5 MOE gapmer AGCAGCTTATGGAAAGACAG (eA*eG*e[5mC]*eA*eG*d[5mC]*dT*dT*dA*dT*dG*dG*dA*dA*dA*eG*eA*e[5mC]*eA*eG) | 55% |
| ISIS 349494: 5-10-5 MOE gapmer AGAATTGACCACGACTCCCT (eA*eG*eA*eA*eT*dT*dG*dA*d[5mC]*d[5mC]*dA*d[5mC]*dG*dA*d[5mC]*eT*e[5mC]*e[5mC]*e[5mC]*eT) | 85% |

Same assay, conditions: 200 nM, cytofectin, ~24 hours

| Substance | Percent inhibition of human CETP mRNA |
| --- | --- |
| ISIS 349506: 5-10-5 MOE gapmer CGCCTTTGCTGTTCATGAGG (e[5mC]*eG*e[5mC]*e[5mC]*eT*dT*dT*dG*d[5mC]*dT*dG*dT*dT*d[5mC]*dA*eT*eG*eA*eG*eG) | 99% |
| ISIS 349469: 5-10-5 MOE gapmer TCTCGAAGTCAATGGACTGA (eT*e[5mC]*eT*e[5mC]*eG*dA*dA*dG*dT*d[5mC]*dA*dA*dT*dG*dG*eA*e[5mC]*eT*eG*eA) | 66% |
| ISIS 349474: 5-10-5 MOE gapmer CGCTCCCCTTGGAGATGCAG (e[5mC]*eG*e[5mC]*eT*e[5mC]*d[5mC]*d[5mC]*d[5mC]*dT*dT*dG*dG*dA*dG*dA*eT*eG*e[5mC]*eA*eG) | 48% |
| ISIS 349497: 5-10-5 MOE gapmer CCTCTTCAAATGTGTAAGCT (e[5mC]*e[5mC]*eT*e[5mC]*eT*dT*d[5mC]*dA*dA*dA*dT*dG*dT*dG*dT*eA*eA*eG*e[5mC]*eT) | 79% |
| ISIS 349473: 5-10-5 MOE gapmer AGCAGCTTATGGAAAGACAG (eA*eG*e[5mC]*eA*eG*d[5mC]*dT*dT*dA*dT*dG*dG*dA*dA*dA*eG*eA*e[5mC]*eA*eG) | 61% |
| ISIS 349494: 5-10-5 MOE gapmer AGAATTGACCACGACTCCCT (eA*eG*eA*eA*eT*dT*dG*dA*d[5mC]*d[5mC]*dA*d[5mC]*dG*dA*d[5mC]*eT*e[5mC]*e[5mC]*e[5mC]*eT) | 57% |

Test system: human CETP mRNA
Assay: Antisense inhibition of human CETP mRNA in SW872 liposarcoma cells (Example 1)
Type: cell-based
Conditions: 150 nM antisense oligonucleotide, lipofectin, ~24 hours, relative to untreated control cells
Experimental: Antisense oligonucleotides targeted to a CETP nucleic acid were tested for their effect on CETP mRNA transcript in vitro. Cultured SW872 liposarcoma cells at a density of 50,000 cells per well in a 24-well plate were transfected using lipofectin reagent with 150 nM antisense oligonucleotide. After approximately 24 hours, RNA was isolated from the cells and CETP mRNA levels were measured by quantitative real-time PCR. A human primer probe set (forward sequence […], designated herein as SEQ ID NO: 38; reverse sequence GGCTCACGCCTTTGCTGTT, designated herein as SEQ ID NO: 39; probe sequence […], designated herein as SEQ ID NO: 40) was used to quantitate CETP mRNA. CETP mRNA transcript levels were adjusted according to total RNA content, as measured by the house-keeping gene, GAPDH mRNA levels. GAPDH was measured using a primer probe set with the sequence as set forth in SEQ ID NOs: 10, 11, 13. Results are presented as percent inhibition of CETP, relative to untreated control cells.
The antisense oligonucleotides in Table 3 are 5-10-5 gapmers, where the gap segment comprises ten 2′-deoxynucleosides and each wing segment comprises five 2′-MOE nucleosides. Each nucleotide in the 5′ wing segment and each nucleotide in the 3′ wing segment has a 2′-MOE modification. The internucleoside linkages throughout each gapmer are phosphorothioate (P═S) linkages. All cytosine residues throughout each gapmer are 5-methylcytosines. ‘Target start site’ indicates the 5′-most nucleotide to which the antisense oligonucleotide is targeted. ‘Target stop site’ indicates the 3′-most nucleotide to which the antisense oligonucleotide is targeted. All the antisense oligonucleotides listed in Table 3 target human CETP mRNA, designated herein as SEQ ID NO: 1 (GENBANK Accession No. M30185.1).

| Substance | % inhibition |
| --- | --- |
| ISIS 349506: 5-10-5 MOE gapmer CGCCTTTGCTGTTCATGAGG (e[5mC]*eG*e[5mC]*e[5mC]*eT*dT*dT*dG*d[5mC]*dT*dG*dT*dT*d[5mC]*dA*eT*eG*eA*eG*eG) | 92% |
| ISIS 349469: 5-10-5 MOE gapmer TCTCGAAGTCAATGGACTGA (eT*e[5mC]*eT*e[5mC]*eG*dA*dA*dG*dT*d[5mC]*dA*dA*dT*dG*dG*eA*e[5mC]*eT*eG*eA) | 70% |
| ISIS 349474: 5-10-5 MOE gapmer CGCTCCCCTTGGAGATGCAG (e[5mC]*eG*e[5mC]*eT*e[5mC]*d[5mC]*d[5mC]*d[5mC]*dT*dT*dG*dG*dA*dG*dA*eT*eG*e[5mC]*eA*eG) | 76% |
| ISIS 349497: 5-10-5 MOE gapmer CCTCTTCAAATGTGTAAGCT (e[5mC]*e[5mC]*eT*e[5mC]*eT*dT*d[5mC]*dA*dA*dA*dT*dG*dT*dG*dT*eA*eA*eG*e[5mC]*eT) | 78% |
| ISIS 349473: 5-10-5 MOE gapmer AGCAGCTTATGGAAAGACAG (eA*eG*e[5mC]*eA*eG*d[5mC]*dT*dT*dA*dT*dG*dG*dA*dA*dA*eG*eA*e[5mC]*eA*eG) | 72% |
| ISIS 349494: 5-10-5 MOE gapmer AGAATTGACCACGACTCCCT (eA*eG*eA*eA*eT*dT*dG*dA*d[5mC]*d[5mC]*dA*d[5mC]*dG*dA*d[5mC]*eT*e[5mC]*e[5mC]*e[5mC]*eT) | 41% |

Test system: human CETP mRNA
Assay: Dose-dependent antisense inhibition of human CETP in SW872 liposarcoma cells (Example 2)
Type: cell-based
Conditions: 50 nM, Lipofectin, ~16 hours (Example 2)
Experimental: Cells were plated at a density of 50,000 cells per well in a 24-well plate and transfected using Lipofectin reagent with 50 nM, 150 nM, and 300 nM concentrations of each antisense oligonucleotide. After approximately 16 hours, RNA was isolated from the cells and CETP mRNA levels were measured by quantitative real-time PCR. CETP mRNA levels were normalized to total RNA content, as measured by the house-keeping gene, GAPDH mRNA levels. Results are presented in Table 4 as percent inhibition of CETP, relative to untreated control cells.

| Substance | percent inhibition of CETP |
| --- | --- |
| ISIS 349506: 5-10-5 MOE gapmer CGCCTTTGCTGTTCATGAGG (e[5mC]*eG*e[5mC]*e[5mC]*eT*dT*dT*dG*d[5mC]*dT*dG*dT*dT*d[5mC]*dA*eT*eG*eA*eG*eG) | 93% |

Same assay, conditions: 150 nM, Lipofectin, ~16 hours (Example 2)

| Substance | percent inhibition of CETP |
| --- | --- |
| ISIS 349506: 5-10-5 MOE gapmer CGCCTTTGCTGTTCATGAGG (e[5mC]*eG*e[5mC]*e[5mC]*eT*dT*dT*dG*d[5mC]*dT*dG*dT*dT*d[5mC]*dA*eT*eG*eA*eG*eG) | 86% |

Same assay, conditions: 300 nM, Lipofectin, ~16 hours (Example 2)

| Substance | percent inhibition of CETP |
| --- | --- |
| ISIS 349506: 5-10-5 MOE gapmer CGCCTTTGCTGTTCATGAGG (e[5mC]*eG*e[5mC]*e[5mC]*eT*dT*dT*dG*d[5mC]*dT*dG*dT*dT*d[5mC]*dA*eT*eG*eA*eG*eG) | 93% |
